Assay results as given in patent US20240180989A1, “LIGUSTRUM LUCIDUM EXTRACT USEFUL FOR THE TREATMENT AND/OR CARE OF THE SKIN” (Lubrizol Advanced Materials, Inc., priority 2021, published 2024).

How the values were obtained:
arginase = assay: Arginase activity reduction in human epidermal keratinocytes (colorimetric Arginase Activity kit); format: cell-based; conditions: 1 mM, donor
Description: Human epidermal keratinocytes (HEK) of donor (Tebu Bio), donor (Promocell) and donor (Promocell) are seeded in 6-well plates at a density of 3×10^5 cells/well in keratinocyte growth medium supplemented with Mix C39016-CaCl2 solution (Promocell). […] The donor's cells treated with S-(2-Boronoethyl)-L-cysteine hydrochloride (BEC, Sigma) 1 mM are used as positive control of arginase inhibition, and the donor's, donor's and 26-year-old donor's cells treated with medium alone are used as basal control of arginase activity at different ages. Treatment is continued for 24 hours. After 24 hours, cells are lysed and are analyzed by a colorimetric Arginase Activity kit (Abcam) according to manufacturer's instructions. […] Absorbance is measured by using a microplate reader (Clariostar, BMG) set to 570 nm in a kinetic mode for 30 minutes. […] Arginase activity is calculated in the exponential phase of the kinetic for each sample with the following equation: AOD═(OD2−ODBG2)−(OD1−ODBG1); where: OD1 and OD2 is the sample reading at time T1 and T2 respectively, ODBG1 and ODBG2 is the sample background reading at time T1 and T2 respectively.
Total protein amount of each sample is determined using a Pierce BCA protein assay kit (Thermo fisher) according to the manufacturer's protocol. […] Afterwards, color change is measured with an absorbance microplate reader (Clariostar, BMG) at 562 nm. […]

[1] = test system: peroxynitrite production in Human epidermal keratinocytes (HEK); assay: Quantification of peroxynitrite production in human epidermal keratinocytes; format: cell-based; conditions: 1 hour, per cell
Description: Human epidermal keratinocytes (HEK) are seeded in 96-well plates at a density of 3×10^4 cells/well in keratinocyte growth medium supplemented with Mix C39016-CaCl2 solution (Promocell). After 24 hours incubation, medium is replaced with fresh culture medium with scalar dilutions of the subcritical water extract at 160° C. of Example 2. Treatment is continued for 24 hours and cells treated with medium alone are used as basal control. After 24 hours incubation, peroxynitrite production is measured by a fluorescence approach with Peroxynitrite assay kit (Abcam) following the manufacturer's instructions. In brief, cells are treated with 10 μl/well sensor green working solution during 1 hour in the medium. Cells treated with SIN-1 (Sigma) 11 mM or 5.76 mM during 1 hour in combination with sensor green solution are used as a positive control of peroxynitrite production. SIN-1 (Sigma) is a nitric oxide donor. After 1-hour incubation, fluorescence is measured with an […] microplate reader (Clariostar, BMG) at excitation 490 nm and emission 530 nm. […] Cell nuclei number is determined with a confocal microscopy Operetta (PerkinElmer). Peroxynitrite fluorescence intensity is normalized to cell number for each condition.
The results in Table 8 are expressed as a percentage of peroxynitrite per cell normalized by basal condition.

| SMILES | Arginase activity MEAN subtracting basal condition and normalizing respect basal condition of cells (arginase) | Arginase activity MEAN respect basal condition of cells (arginase; 24 h) | Peroxynitrite production MEAN respect basal condition ([1]; 5.76 mM) | Peroxynitrite production MEAN respect basal condition ([1]; 11 mM) |
| --- | --- | --- | --- | --- |
| Cl.N[C@@H](CSCCB(O)O)C(=O)O [BEC, S-(2-Boronoethyl)-L-cysteine hydrochloride] | −10.58% | 70.10% | – | – |
| [NH-]c1c[n+](N2CCOCC2)no1 [SIN-1] | – | – | 2379.00% | 1654.00% |
